Test [1] relates to Kir3.1/3.4 and Kir3.1/3.2 channels. To be noted: cited from earlier work.
A further test deals with Kir1 and Kir2 channels. To be noted: cited from earlier work.
In the next test the target is T1, Kir3 channels (Mus musculus, UniProt P48542).
T1 construct: other: patch-clamp; other: 100 mM
T1 sequence (P48542 1-425): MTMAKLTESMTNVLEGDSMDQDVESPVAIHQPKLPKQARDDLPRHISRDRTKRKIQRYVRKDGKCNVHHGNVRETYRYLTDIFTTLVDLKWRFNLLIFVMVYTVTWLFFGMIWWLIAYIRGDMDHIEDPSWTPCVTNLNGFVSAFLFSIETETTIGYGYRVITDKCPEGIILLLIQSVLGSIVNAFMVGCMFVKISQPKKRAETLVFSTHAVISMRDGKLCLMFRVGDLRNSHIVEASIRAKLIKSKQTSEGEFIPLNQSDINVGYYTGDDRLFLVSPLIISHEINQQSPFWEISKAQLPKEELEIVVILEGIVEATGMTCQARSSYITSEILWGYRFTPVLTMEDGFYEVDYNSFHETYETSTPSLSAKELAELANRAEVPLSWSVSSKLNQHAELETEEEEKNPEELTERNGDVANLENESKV
In words: patch-clamp determination of ion transport activity: activation of Kir3 channels. To be noted: for Emax at 100000 µM: read-out: Maximal activation of Kir3 channels relative to that of 100 mM (±)MPD. The class given is cell-based. The source says: It has been determined that inwardly rectifying potassium (Kir) channels are regulated directly by small molecule alcohol compounds. Three-dimensional crystallographic analysis of Kir channels has elucidated atomic details of binding pocket interactions with 2-methyl-2,4-pentanediol (MPD). MPD inhibits Kir2 channel activity and activates Kir3 channel activity. Amino acid substitutions in this hydrophobic pocket of the channel protein may alter the response to MPD. As determined by patch-clamp determinations of ion transport activity, a racemic mixture of 2-methyl-2,4-pentanediol, (±)MPD, activates Kir3 channels with an EC50 of >200 mM and inhibits Kir2 homotetramer channels with an IC50 of ˜200 mM. […] Bupivacaine inhibits Kir3.1/3.4 and Kir3.1/3.2 channels with an IC50 of ˜20-40 micromolar.
The following also were observed. Maximal activation of Kir3 channels by 100 mM (±)MPD is 280% that of 100 mM EtOH. Maximal activation of Kir3 channels by 100 mM R(−)2 methyl-2,4-pentanediol is 60% that of 100 mM (±)MPD. Maximal activation of Kir3 channels by 100 mM 3-methyl-1,3,5-pentanetriol is 70% that of 100 mM (±)MPD. Maximal activation of Kir3 channels by 100 mM 2,5-dimethyl-1,2,6-hexanetriol is 70% that of 100 mM (±)MPD. Maximal activation of Kir3 channels by 100 mM (±) 2,4-pentanediol is 50% that of 100 mM (±)MPD.

Test [2] concerns the target T2, GIRK2 channel (wild type) (Mus musculus, UniProt P48542).
T2 construct: expressed in transfected cells; host or cells: HEK293T
T2 sequence (P48542 1-425): T1 sequence (P48542 1-425)
In words: whole-cell patch clamp, HEK293T cells transfected with GIRK2. The class given is cell-based. To be noted: 1 mM Ba++, MPD doses up to 300 mM. The text has this: (§1) GIRK2c, GIRK4, IRK1, M2R and m-Phosducin were subcloned into PCDNA3.1 vector (Invitrogen). Point mutations were introduced by Quickchange site directed mutagenesis kit (Stratagene). The GIRK2 PIP mutant was generated by overlap-PCR method. Briefly, amino acid 216-NLRKSHL-222 (SEQ ID NO: 25) of IRK1 was swapped into 228-DLRNSHL-234 (SEQ ID NO: 26) of GIRK2, in the region designated βC-βD loop in the crystal structure. Mutations were confirmed by automated DNA sequencing methods.
(§2) HEK 293T cells were cultured in DMEM supplemented with 10% FBS, and 1× Glutamax (Invitrogen) in a humidified 37° incubator with 5% CO2. Cells were plated in a 12 well dish, and were transiently transfected using Lipofectamine 2000 (Invitrogen). After 12-24 hrs, cells were re-plated to 12-mm glass coverslips coated with poly-D-Lysine (20 microgram/ml).
(§3) HEK293 cells were transfected with 0.2 micrograms of channel cDNA. The cells were co-transfected with 0.04 micrograms of eYFP cDNA to identify transfected cells. 0.8 micrograms of Muscarinic Receptor 2 (M2R) was also co-transfected for experiments with Carbachol. For experiments with and without m-phosducin, 0.8 ug of m-phosducin cDNA was used versus a PCDNA3.1 vector control.
(§4) Whole-cell patch clamp recordings were performed 24-72 hrs after transfection. Borosilicate glass electrodes (Warner Instruments) of […] filled with intracellular solution (130 mM KCl, 20 mM NaCl, 5 mM EGTA, 2.56 mM K2ATP, 5.46 mM MgCl2, 0.30 mM Li2GTP, and 10 mM HEPES (pH 7.4)) was used. Membrane currents were recorded using Axopatch 200B (Axon Instruments) amplifier, adjusted electronically for cell capacitance and series resistance (80-100%), filtered at 1 kHz with an 8-pole Bessel filter and digitized at 5 kHz with a Digidata 1200 interface (Axon Instruments). The cells rapidly perfused with a 20 mM K^+ (20K) solution (20 mM KCl, 140 mM NaCl, 0.5 mM CaCl2, 2 mM MgCl2 and 10 mM HEPES (pH7.4)). Alcohols, 5 μM Carbachol, and 1 mM BaCl2 (diluted in 20K solution) were applied from outside the cell with the rapid perfusion system (Warner Instruments). Whole-cell currents were measured using a ramp protocol that holds at −40 mV, steps to −100 mV then ramps to +50 mV and repeats every 2 seconds. Current-voltage relationships also were obtained from the ramp protocol. This protocol was used to measure the inwardly rectifying currents at −100 mV and to ensure stability of recording by monitoring a reversal potential and inward rectification. Current density was measured by dividing inward current at −100 mV by membrane capacitance that was compensated during the recording. Basal currents were measured as the Ba^++ blocked inward currents at −100 mV. Alcohol and Carbachol modulated currents were measured by averaging two consecutive current readings upon reaching steady state, and subtracting the averaged basal current before and after the application of modulator. Pooled data are presented as Mean±SEM and evaluated for statistical significance by a 1-way ANOVA, followed by Bonferroni's multiple comparison post-hoc test.

For another test, the target named is T3, IRK1 channel (Mus musculus, UniProt P35561).
T3 construct: expressed in transfected cells; host or cells: HEK293T
T3 sequence (P35561 1-428): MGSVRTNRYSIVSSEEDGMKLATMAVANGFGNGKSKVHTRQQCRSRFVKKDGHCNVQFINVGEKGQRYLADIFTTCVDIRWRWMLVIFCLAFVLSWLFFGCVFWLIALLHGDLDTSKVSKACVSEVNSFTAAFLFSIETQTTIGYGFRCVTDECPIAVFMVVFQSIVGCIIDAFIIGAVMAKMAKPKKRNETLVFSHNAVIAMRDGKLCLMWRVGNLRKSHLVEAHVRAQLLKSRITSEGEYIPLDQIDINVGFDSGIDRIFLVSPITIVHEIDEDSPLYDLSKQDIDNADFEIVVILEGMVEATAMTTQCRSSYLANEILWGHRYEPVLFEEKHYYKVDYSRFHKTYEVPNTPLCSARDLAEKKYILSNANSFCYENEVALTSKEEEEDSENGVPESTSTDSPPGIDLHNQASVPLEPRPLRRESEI
In words: whole-cell patch clamp, HEK293T cells transfected with IRK1. To be noted: 1 mM Ba++. It counts as cell-based. How it is done:
Using whole-cell patch clamp, technique in HEK293T cells transfected with IRK1 or GIRK2 channels, it was determined that MPD does in fact modulate these channels. Addition of 100 mM MPD inhibits the inward currents of the IRK1 channel, without changing the reversal potential or altering inward rectification (FIG. 1e).
as §1, §2, §3, §4

The values that follow come from US8097422B2, “Kir channel modulators” (Salk Institute for Biological Studies, priority 2007, dated 2012).

Like-named read-outs stand apart in the source and are kept apart here.

Regarding `CCCCN1CCCCC1C(=O)Nc1c(C)cccc1C` (stereo not drawn) [Bupivacaine], the IC50 in test [1] (certain Kir3 channels, read-out: IC50 for inhibition of certain Kir3 channels) is about 20 µM; in test [1] (reference [31], read-out: IC50 for inhibition of Kir3.1/3.4 and Kir3.1/3.2 channels), 20 to 40 µM. Also, in the test on Kir1 and Kir2 channels, the “sensitivity of Kir1 and Kir2 channels to bupivacaine” value is given as “insensitive”.
Turning to `CC(O)CC(C)O` (racemic) [(±) 2,4-pentanediol, 2,4-pentanediol], the Emax at 100000 µM at Kir3 channels stood at 50%.
Take `[Ba+2].[Cl-].[Cl-]` [Ba^++, BaCl2]: the “block of MPD-induced GIRK2 currents” value in test [2] is given as “completely blocked”. Moreover, the “block of IRK1 inwardly rectifying current” value at IRK1 channel is listed as “blocked completely”.
Regarding `C[C@@H](O)CC(C)(C)O` [R(−)2 methyl-2,4-pentanediol], the “Maximal activation of Kir3 channels relative to that of 100 mM (±)MPD” value at Kir3 channels (100 mM) turned out to be 60%.
Consider `CC(CO)CCC(C)(O)CO` (stereo not drawn) [2,5-dimethyl-1,2,6-hexanetriol], for which the Emax at 100000 µM on Kir3 channels was 70%.
For `CC(O)(CCO)CCO` [3-methyl-1,3,5-pentanetriol], on Kir3 channels, the Emax at 100000 µM was 70%.
